This note sets out measurements from patent US20210017174A1, “IDENTIFICATION AND USE OF ERK5 INHIBITOR” (Bayer Aktiengesellschaft, priority 2018, published 2021).

SMILES strings stand for the structures.

One assay addresses T1, ERK5 (Homo sapiens, UniProt Q13164).
T1 construct: host or cells: E. coli
The assay can be described thus: TR-FRET-based Erk5 activity inhibition assay (biochemical assay ERK5). The note with it: TR-FRET, 250 μM ATP, 1 μM substrate peptide, 60 min at 22° C.; read-out: IC50 value biochemiocal ERK5 asssay. On the technique in general: TR-FRET usually uses a lanthanide donor and a delayed reading to cut background.

The subject of assay [1] is SN12C-MEF2-luc (clone #37) reporter cell line. The assay can be described thus: Luciferase reporter assay in SN12C-MEF2-luc cells (EGF-stimulated, MEF2-responsive luciferase).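 Also: serially diluted compounds at 37 °C, EGF with DMSO as maximum signal and EGF with a 10 µM reference inhibitor as minimum (full inhibition).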 The class given is cell-based. As to conditions: Homo sapiens, 16 h compound incubation, then EGF 100 ng/ml for 2 h, ONE-Glo luminescence. A general note: In a reporter assay the amount or activity of a reporter protein is the signal.

T1 sequence (Q13164 1-398): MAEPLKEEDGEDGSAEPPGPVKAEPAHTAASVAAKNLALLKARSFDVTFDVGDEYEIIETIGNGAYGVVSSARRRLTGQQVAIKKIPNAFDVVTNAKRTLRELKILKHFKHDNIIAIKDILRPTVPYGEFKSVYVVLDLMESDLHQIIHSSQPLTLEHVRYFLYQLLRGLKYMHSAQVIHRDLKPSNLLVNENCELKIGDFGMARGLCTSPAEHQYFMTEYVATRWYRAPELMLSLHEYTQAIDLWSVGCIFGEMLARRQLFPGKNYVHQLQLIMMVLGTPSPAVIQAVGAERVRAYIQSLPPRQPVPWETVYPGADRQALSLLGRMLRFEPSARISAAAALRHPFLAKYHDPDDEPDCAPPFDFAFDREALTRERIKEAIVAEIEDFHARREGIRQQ

Regarding `COc1cc2ncnc(C3CCN(C(=O)c4ccc(SC(F)(F)F)cc4)CC3)c2cc1OC` [Example 16, [4-(6,7-Dimethoxyquinazolin-4-yl)piperidin-1-yl]{4-[(trifluoromethyl)sulfanyl]-phenyl}methanone], the values for the IC50 (at ERK5; in assay [1]) were 159 nM and 1720 nM, respectively.

For `CC1(N)CCN(c2cnc3c(C4CCN(C(=O)c5ccc(OC(F)(F)F)cc5)CC4)ncnc3c2)CC1` [Example 73, {4-[7-(4-Amino-4-methylpiperidin-1-yl)pyrido[3,2-d]pyrimidin-4-yl]piperidin-1-yl}[4-(trifluoromethoxy)phenyl]methanone], the half-inhibitory concentration (IC50) (as a rule, the concentration needed to halve the response being measured) on ERK5 stood at 39.1 nM; in assay [1] it was 253 nM.

Turning to `O=C(c1ccc(OC(F)(F)F)cc1)N1CCC(c2ncnc3cc(C4=CCOCC4)ccc23)CC1` [Example 52, {4-[7-(3,6-Dihydro-2H-pyran-4-yl)quinazolin-4-yl]piperidin-1-yl}[4-(trifluoro-methoxy)phenyl]-methanone], the figures for the IC50 (at ERK5; in assay [1]) were 24.7 nM and 500 nM, respectively.

Regarding `COc1cc2ncnc(C3CCN(C(=O)c4ccc(OC(C)(C)C)cc4)CC3)c2cc1OC` [Example 25, (4-Tert-butoxyphenyl)[4-(6,7-dimethoxyquinazolin-4-yl)piperidin-1-yl]methanone], the concentration for half-maximal inhibition (IC50) on ERK5 is 1030 nM; in assay [1], 6830 nM.

As to `COC1CCN(c2cnc3c(C4CCN(C(=O)c5ccc(OC(F)(F)F)cc5)CC4)ncnc3c2)CC1` [Example 79, {4-[7-(4-Methoxypiperidin-1-yl)pyrido[3,2-d]pyrimidin-4-yl]piperidin-1-yl}[4-(trifluoromethoxy)phenyl]methanone], the half-inhibitory concentration (IC50) at ERK5 came out at 49.9 nM; in assay [1], 122 nM.

With `CC(=O)NCCOc1ccc2c(C3CCN(C(=O)c4ccc(OC(F)(F)F)cc4)CC3)ncnc2c1` [Example 50, N-{2-[(4-{1-[4-(Trifluoromethoxy)benzoyl]piperidin-4-yl}quinazolin-7-yl)oxy]ethyl}acetamide], the half-inhibitory concentration (IC50) was determined as 167 nM at ERK5 and 387 nM in assay [1].

Turning to `CCCCOc1ccc(C(=O)N2CCC(c3ncnc4cc(OC)c(OC)cc34)CC2)cc1` [Example 17, (4-Butoxyphenyl)[4-(6,7-dimethoxyquinazolin-4-yl)piperidin-1-yl]methanone], the IC50 at ERK5 turned out to be 111 nM; in assay [1], 13100 nM.

For `COc1cc2ncnc(C3CCN(C(=O)c4ccc(OC(F)(F)F)c(F)c4)CC3)c2cc1OC` [Example 22, [4-(6,7-Dimethoxyquinazolin-4-yl)piperidin-1-yl][3-fluoro-4-(trifluoromethoxy)phenyl]methanone], the IC50 at ERK5 is 88.5 nM; in assay [1], 1230 nM.

With `CNC(=O)c1ccc2c(C3CCN(C(=O)c4ccc(OC(F)(F)F)cc4)CC3)ncnc2c1` [Example 41, N-Methyl-4-{1-[4-(trifluoromethoxy)benzoyl]piperidin-4-yl}quinazoline-7-carboxamide], the IC50 at ERK5 is 1090 nM; in assay [1] it was 7040 nM.

On to `O=C(c1ccc(OC(F)(F)F)cc1)N1CCC(c2ncnc3cc(C4CC4)ccc23)CC1` [Example 51, [4-(7-Cyclopropylquinazolin-4-yl)piperidin-1-yl][4-(trifluoromethoxy)phenyl]-methanone], for which the IC50 at ERK5 was determined as 43 nM; in assay [1] it was 594 nM.

Regarding `O=C(c1ccc(OC(F)(F)F)cc1)N1CCC(c2ncnc3cc(OCC(F)F)ccc23)CC1` [Example 64, {4-[7-(2,2-Difluoroethoxy)quinazolin-4-yl]piperidin-1-yl}[4-(trifluoromethoxy)-phenyl]methanone], the results for the IC50 (on ERK5; in assay [1]) were 89.8 nM and 694 nM, respectively.

With `O=C(c1ccc(OC(F)(F)F)cc1)N1CCC(c2ncnc3cc(OC4CCOCC4)ccc23)CC1` [Example 49, {4-[7-(Tetrahydro-2H-pyran-4-yloxy)quinazolin-4-yl]piperidin-1-yl}[4-(trifluoromethoxy)phenyl]-methanone], the half-maximal inhibitory concentration (IC50) at ERK5 turned out to be 145 nM; in assay [1] it was 352 nM.

Regarding `COc1cc2ncnc(C3CCN(C(=O)c4ccc(OC(F)(F)F)cc4F)CC3)c2cc1OC` [Example 2, [4-(6,7-Dimethoxyquinazolin-4-yl)piperidin-1-yl][2-fluoro-4-(trifluoromethoxy)phenyl]methanone], the IC50 on ERK5 amounted to 93.1 nM; in assay [1], 935 nM.

For `O=C(c1ccc(OC(F)(F)F)cc1)N1CCC(c2ncnc3cc(OCCO)ccc23)CC1` [Example 47, {4-[7-(2-Hydroxyethoxy)quinazolin-4-yl]piperidin-1-yl}[4-(trifluoromethoxy)-phenyl]methanone], the IC50 at ERK5 came to 110 nM; in assay [1], 2450 nM.

As for `COc1cc2ncnc(C3CCN(C(=O)c4ccc(COC(F)(F)F)cc4)CC3)c2cc1OC` [Example 5, [4-(6,7-Dimethoxyquinazolin-4-yl)piperidin-1-yl]{4-[(trifluoromethoxy)methyl]phenyl}methanone], the IC50 on ERK5 is 1140 nM; in assay [1], 11300 nM.

On to `C=CCOc1ccc(C(=O)N2CCC(c3ncnc4cc(OC)c(OC)cc34)CC2)cc1` [Example 27, [4-(6,7-Dimethoxyquinazolin-4-yl)piperidin-1-yl][4-(prop-2-en-1-yloxy)phenyl]-methanone], for which the figures for the IC50 (at ERK5; in assay [1]) were 401 nM and 4910 nM, respectively.

Regarding `O=C(c1ccc(OC(F)(F)F)cc1)N1CCC(c2ncnc3cc(-c4ccn[nH]4)ccc23)CC1` [Example 53, {4-[7-(1H-Pyrazol-5-yl)quinazolin-4-yl]piperidin-1-yl}[4-(trifluoromethoxy)-phenyl]methanone], the IC50 at ERK5 was 78.1 nM; in assay [1] it was 627 nM.

For the compound `CN1CCC(Nc2cnc3c(C4CCN(C(=O)c5ccc(OC(F)(F)F)cc5)CC4)ncnc3c2)CC1` [Example 71, (4-{7-[(1-Methylpiperidin-4-yl)amino]pyrido[3,2-d]pyrimidin-4-yl}piperidin-1-yl)[4-(trifluoromethoxy)phenyl]methanone], the IC50 stood at 153 nM at ERK5 and 436 nM in assay [1].

`O=C(c1ccc(OC(F)(F)F)cc1)N1CCC(c2ncnc3cc(N4CCC(F)(F)CC4)cnc23)CC1` [Example 77, {4-[7-(4,4-Difluoropiperidin-1-yl)pyrido[3,2-d]pyrimidin-4-yl]piperidin-1-yl}[4-(trifluoromethoxy)phenyl]methanone]: the IC50 on ERK5 amounted to 30.3 nM; in assay [1], 132 nM.
